Assays:
[1] = pig, 8 h, pH 7.4
Text: (§1) Porcine ears were freshly obtained from a local slaughter facility, gently washed with running tap water, and chopped into pieces of 50 mm in width. Visual observation was done to check if the skins were free from lesions and infections. Hairs at the back of the ear were carefully removed by clipper. Full thickness skins were obtained using manual-operated dermatome with uniform insertion force and angle. The split skins were cut into discs with 40 mm diameter. The skins were then sprayed and rubbed with 75% ethanol for 1 mm to remove fatty tissues and dirt, followed by DI water washing. Thereafter the skins were blotted with a cellulose-based fiber tissue, such as […] ™, wrapped with aluminum foil, and stored in a −20° C. refrigerator until further use. All prepared porcine skin was used within 2 weeks.
(§2) Vertical diffusion cell was filled with 7 mL phosphate buffered saline (PBS) (137 mM sodium chloride (NaCl), 2.7 mM potassium chloride (KCl), 4.3 mM sodium phosphate dibasic heptahydrate (NaH2PO4.7H2O), and 1.6 mM potassium phosphate monobasic (KH2PO4), pH 7.4) and pre-run at 300 rpm with bath circulator for 1 hr to achieve 37° C. Porcine skin was thawed by soaking in PBS at room temperature for 1 hr. After that, the porcine skin was mounted between the receptor and the donor cell of the diffusion system. The stratum corneum of the skin faced the donor cell while the dermis side faced the receptor cell. The skin was handled with care to avoid bubble accumulation on the receptor side of the skin. Diclofenac sodium (DFS) or insulin (70 μL) and DI water (500 μL) were loaded into the drug and water reservoirs, respectively, through the resealable injector ports. A patch, such as those described in previous examples, was gently shaken to ensure water could make contact with the dried hydrogel inside. The patch was applied on the donor side of the skin by finger force, with the help of adhesive tapes to keep the patch in position. Samples (1 mL) were withdrawn from the receptor cell every hour with immediate replenishment of the same volume of fresh PBS. The tests were done with patches bonded with commercial (ME-C-600), zeolite (SSM-O-150), or plastic (P-O-500) microneedles.
(§3) Quantification of DFS in samples was done by analysis under ultra-performance liquid chromatography (UPLC). With a gradient method A:B=70%:30% to 10%: 90% in 4 min (A=0.02% trifluoroacetic acid (TFA) in H2O; B=0.02% TFA in acetonitrile (ACN)), flow rate=0.45 mL/min with detection wavelength=210 nm. […] Negative control is achieved by direct pipetting of a known amount of drug on skin for diffusion.
(§4) A plastic microneedle plate was used in this experiment.

[2] = In-vivo DFS delivery across skin by microneedle plates; design: species or system Sprague Dawley rats; conditions: 200 μl of 5 mg/ml DFS bolus, skin sampled after 5 min
Protocol: A in-vivo test was conducted on Sprague Dawley rates between approximately 230 g-250 g to analyze DFS delivery. […] 200 μl of 5 mg/ml DFS in phosphate buffered saline (PBS) was injected through rats' naked skin with either zeolite microneedles or commercial microneedles in bolus. A negative control consisted of placing excess DFS solution on rats' naked skin. After 5 min, the skins were washed by iced DI water. About 1 mm diameter of skin samples at the injection sites were carefully cut and then weighed in 2 ml centrifuge tubes. Then the skin samples were homogenized in 5 fold PBS buffer by sonication. DFS was extracted from the homogenate by liquid-phase extraction using 500 μl ethyl-acetate for twice. The ethyl-acetate was collected into 1.5 ml centrifuge tubes and then removed under vacuum. The residues were reconstituted by 500 μl ACN:H2O (50:50 w/w ratio) and 200 μl of the reconstituted solution was send for UPLC analysis.

[3] = In-vitro transdermal delivery across porcine ear skin in vertical diffusion cell (active infusion microneedle patch)
Text: as §1, §2, §3, §4

blood glucose level [4] = conditions: micro-needles and pressure force (10 psi); cited from earlier work
[5] = insulin administration by the transdermal patch, compared with other groups
Protocol: An in vivo test of insulin delivery was conducted on Sprague Dawley rats weighing between approximately 230 g-250 g, which were fasting overnight, but free to access water one day before the test. The rats were anesthetized by a ketamine/xylazine cocktail, and the abdominal hairs were completely removed by a hair clipper followed by chemical depilatory creams. About 80 μl of 100 IU/ml human insulin solution was transdermal administrated to individual rats by either zeolite microneedles or the same type of commercial microneedles used in Example 12. Fixed dosed 0.1 IU insulin solution or saline was also subcutaneously injected by syringes to simulate the positive and negative control respectively. The rats' blood glucose levels were recorded by a portable glucose meter (Roche, Accu-Chek Performa Nano) for 6 hours at different time intervals. For the first 4 hours 200 μl of blood samples were also collected by squeezing the rats' tails. The blood samples were centrifuge at 13000 G for 3 min and then the blood plasma was pipetted into 1.5 ml centrifuge tubes and stored under −80° C. for blood insulin test. The blood insulin levels were tested by an ELISA kit (Mercodia, Human Insulin ELISA). […]
In pharmacokinetics, the administration efficiency of a certain drug is commonly evaluated by its Cmax and Tmax. […]

blood glucose level [6] = assay: In-vivo insulin delivery, blood glucose level; design: species or system Sprague Dawley rats; conditions: after 1 hour
Protocol: For all zeolite microneedle, commercial microneedle, and the positive control, a significant pharmaceutical effect could be observed after 1 hour, when the blood glucose level of the rats dropped by about 4-fold from the original level and was subsequently maintained for some hours.

| Percentage of DFS delivered [1] [%] | Total amount of drug delivered [1] [%] | increase of transdermal DFS delivery compared with the negative control ([2]; commercial microneedle) [times] | increase in delivery amount compared with the commercial microneedle ([2]; zeolite microneedle) | DFS delivery rate ([3]; zeolite microneedle plate adhered to the patch, versus negative control) | Compound | lowering of normalized blood glucose level (blood glucose level [4]) [%] | Cmax (blood insulin level) [5] | Tmax (blood insulin level) [5] | insulin delivery rate profile ([3]; active infusion patch with zeolite and commercial microneedles) | insulin permeated across skin ([3]; non-porated pig skin, skin patch test (negative control), 70 μL of 4.5 mg/mL insulin) | drop of blood glucose level from the original level (blood glucose level [6]; commercial microneedle, about 80 μl of 100 IU/ml human insulin) | drop of blood glucose level from the original level (blood glucose level [6]; positive control: 0.1 IU insulin subcutaneously injected by syringe) | drop of blood glucose level from the original level (blood glucose level [6]; zeolite microneedle, about 80 μl of 100 IU/ml human insulin) |
| --- | --- | --- | --- | --- | --- | --- | --- | --- | --- | --- | --- | --- | --- |
| 17.6±3.2 | 60.9±6.1 | ~5 | more than 3 fold | improves delivery rates | O=C(O)Cc1ccccc1Nc1c(Cl)cccc1Cl [DFS, Diclofenac sodium] |  |  |  |  |  |  |  |  |
|  |  |  |  |  | insulin | 70 | highest | fastest | linear insulin delivery rate | less than 5% | about 4 fold | about 4 fold | about 4 fold |
